≈ marks a conversion by molar mass, not a printed value.
Experiments:
Vero = test: Cytotoxicity against Chlorocebus aethiops (African green monkey) Vero cells up to 62.5 ug/ml after 72 hr by MTT assay; assay type: cell-based; details: chlorocebus sabaeus
[1] = tested on: Mycobacterium tuberculosis; test: Growth inhibition of Mycobacterium tuberculosis H37Rv ATCC 27294 at 0.0614 uM by radiometric analysis; assay type: functional; details: read-out: GI
[2] = tested on: Mycobacterium tuberculosis; test: Antimycobacterial activity against Mycobacterium tuberculosis H37Rv ATCC 27294 by microdilution alamar blue assay; assay type: functional
[3] = tested on: Mycobacterium tuberculosis; test: Growth inhibition of Mycobacterium tuberculosis H37Rv ATCC 27294 at 0.0650 uM by radiometric analysis; assay type: functional; details: read-out: GI
[4] = tested on: Mycobacterium tuberculosis; test: Growth inhibition of Mycobacterium tuberculosis H37Rv ATCC 27294 at 0.1214 uM by radiometric analysis; assay type: functional; details: read-out: GI
[5] = tested on: Mycobacterium tuberculosis; test: Growth inhibition of Mycobacterium tuberculosis H37Rv ATCC 27294 at 0.7110 uM by radiometric analysis; assay type: functional; details: read-out: GI
[6] = tested on: Mycobacterium tuberculosis; test: Growth inhibition of Mycobacterium tuberculosis H37Rv ATCC 27294 at 0.1109 uM by radiometric analysis; assay type: functional; details: read-out: GI
[7] = tested on: Mycobacterium tuberculosis; test: Growth inhibition of Mycobacterium tuberculosis H37Rv ATCC 27294 at 0.0311 uM by radiometric analysis; assay type: functional; details: read-out: GI
[8] = tested on: Mycobacterium tuberculosis; test: Growth inhibition of Mycobacterium tuberculosis H37Rv ATCC 27294 at 0.0550 uM by radiometric analysis; assay type: functional; details: read-out: GI
[9] = tested on: Mycobacterium tuberculosis; test: Growth inhibition of Mycobacterium tuberculosis H37Rv ATCC 27294 at 0.0250 uM by radiometric analysis; assay type: functional; details: read-out: GI
[10] = tested on: Mycobacterium tuberculosis; test: Growth inhibition of Mycobacterium tuberculosis H37Rv ATCC 27294 at 0.0677 uM by radiometric analysis; assay type: functional; details: read-out: GI
[11] = tested on: Mycobacterium tuberculosis; test: Growth inhibition of Mycobacterium tuberculosis H37Rv ATCC 27294 at 0.0211 uM by radiometric analysis; assay type: functional; details: read-out: GI
[12] = tested on: Mycobacterium tuberculosis; test: Growth inhibition of Mycobacterium tuberculosis H37Rv ATCC 27294 at 0.1229 uM by radiometric analysis; assay type: functional; details: read-out: GI
[13] = tested on: Mycobacterium tuberculosis; test: Growth inhibition of Mycobacterium tuberculosis H37Rv ATCC 27294 at 0.1218 uM by radiometric analysis; assay type: functional; details: read-out: GI
[14] = tested on: Mycobacterium tuberculosis; test: Growth inhibition of Mycobacterium tuberculosis H37Rv ATCC 27294 at 0.1127 uM by radiometric analysis; assay type: functional; details: read-out: GI
[15] = tested on: Mycobacterium tuberculosis; test: Growth inhibition of Mycobacterium tuberculosis H37Rv ATCC 27294 at 0.1110 uM by radiometric analysis; assay type: functional; details: read-out: GI
[16] = tested on: Mycobacterium tuberculosis; test: Growth inhibition of Mycobacterium tuberculosis H37Rv ATCC 27294 at 0.1211 uM by radiometric analysis; assay type: functional; details: read-out: GI
[17] = tested on: Mycobacterium tuberculosis; test: Growth inhibition of Mycobacterium tuberculosis H37Rv ATCC 27294 at 0.0418 uM by radiometric analysis; assay type: functional; details: read-out: GI
[18] = tested on: Mycobacterium tuberculosis; test: Growth inhibition of Mycobacterium tuberculosis H37Rv ATCC 27294 at 0.6890 uM by radiometric analysis; assay type: functional; details: read-out: GI
[19] = tested on: Mycobacterium tuberculosis; test: Growth inhibition of Mycobacterium tuberculosis H37Rv ATCC 27294 at 0.1277 uM by radiometric analysis; assay type: functional; details: read-out: GI

O=C(NNc1nc(Nc2ccccn2)nc(Nc2ccc(Cl)cc2Cl)n1)c1ccncc1
Activity (Vero): Non-toxic | inhibition of growth at 0.0614 µM [1]: 92% | MIC [2]: 5.92 mg/L (≈ 12.6 µM)

O=C(NNc1nc(Nc2ccccn2)nc(Nc2ccccc2Cl)n1)c1ccncc1
inhibition of growth at 0.065 µM [3]: 80%

O=C(NNc1nc(Nc2ccccn2)nc(Nc2ccccc2[N+](=O)[O-])n1)c1ccncc1
inhibition of growth at 0.1214 µM [4]: 67%

O=C(NNc1nc(Nc2ccccc2)nc(Nc2ccccn2)n1)c1ccncc1
inhibition of growth at 0.711 µM [5]: 71%

O=C(NNc1nc(Nc2cccc([N+](=O)[O-])c2)nc(Nc2ccccn2)n1)c1ccncc1
inhibition of growth at 0.1109 µM [6]: 72%

O=C(NNc1nc(Nc2ccccn2)nc(Nc2c(Cl)cccc2Cl)n1)c1ccncc1
Activity (Vero): Non-toxic | MIC [2]: 4.69 mg/L (≈ 10 µM) | inhibition of growth at 0.0311 µM [7]: 91%

O=C(NNc1nc(Nc2cccc(Cl)c2)nc(Nc2ccccn2)n1)c1ccncc1
inhibition of growth at 0.055 µM [8]: 82%

O=C(NNc1nc(Nc2ccc(Cl)cc2)nc(Nc2ccccn2)n1)c1ccncc1
MIC [2]: 5.91 mg/L (≈ 13.6 µM) | inhibition of growth at 0.025 µM [9]: 94%

COc1ccccc1Nc1nc(NNC(=O)c2ccncc2)nc(Nc2ccccn2)n1
inhibition of growth at 0.0677 µM [10]: 81%

COc1ccc(Nc2nc(NNC(=O)c3ccncc3)nc(Nc3ccccn3)n2)cc1
Activity (Vero): Non-toxic | MIC [2]: 4.11 mg/L (≈ 9.57 µM) | inhibition of growth at 0.0211 µM [11]: 94%

O=C(NNc1nc(Nc2ccccn2)nc(Nc2ccccc2O)n1)c1ccncc1
inhibition of growth at 0.1229 µM [12]: 71%

Cc1cccc(Nc2nc(NNC(=O)c3ccncc3)nc(Nc3ccccn3)n2)c1
inhibition of growth at 0.1218 µM [13]: 74%

Cc1ccc(Nc2nc(NNC(=O)c3ccncc3)nc(Nc3ccccn3)n2)cc1
inhibition of growth at 0.1127 µM [14]: 77%

Cc1ccccc1Nc1nc(NNC(=O)c2ccncc2)nc(Nc2ccccn2)n1
inhibition of growth at 0.111 µM [15]: 71%

O=C(NNc1nc(Nc2ccc([N+](=O)[O-])cc2)nc(Nc2ccccn2)n1)c1ccncc1
inhibition of growth at 0.1211 µM [16]: 69%

NS(=O)(=O)c1ccc(Nc2nc(NNC(=O)c3ccncc3)nc(Nc3ccccn3)n2)cc1
inhibition of growth at 0.0418 µM [17]: 90% | Activity (Vero): Non-toxic | MIC [2]: 6 mg/L (≈ 12.5 µM)

COc1cccc(Nc2nc(NNC(=O)c3ccncc3)nc(Nc3ccccn3)n2)c1
inhibition of growth at 0.689 µM [18]: 83%

O=C(NNc1nc(Nc2ccc(O)cc2)nc(Nc2ccccn2)n1)c1ccncc1
inhibition of growth at 0.1277 µM [19]: 77%

— ChEMBL document CHEMBL3046566, “In vitro antimycobacterial activity of novel N-(4-(substituted phenyl amino)-6-(pyridin-2-ylamino)-1,3,5-triazin-2-yl)isonicotinohydrazide” (Med Chem Res, 2011)
